Data from US9278958B2, “Anti-cancer compounds” (KATHOLIEKE UNIVERSITEIT LEUVEN, priority 2012, dated 2016).
Where two headings read alike, the source gives them in different places.

Key:
[1] = system: DU145 (UZ) prostate cancer cells; test: Cytostatic assay, DU145 (UZ); type: cell-based; conditions: Homo sapiens, DU-145; Table 4
Method: (§1) To each well of a 96-well microtiter plate were added 5-7.5×10^4 cells and a given amount of the test compound. The cells were allowed to proliferate for 48 h to 96 h (depending on the nature of the cell line) at 37° C. in a humidified CO2-controlled atmosphere. At the end of the incubation period, the cells were counted in a Coulter Counter (Coulter Electronics Ltd, Harpenden Herts, United Kingdom).

PLC/PRF/5 hepatoma cells = test: Cytostatic assay, PLC/PRF/5; type: cell-based; conditions: Homo sapiens, Table 4
Method: as §1

[2] = system: PNT1A (UZ) prostate cells; test: Cytostatic assay, PNT1A (UZ); type: cell-based; conditions: Homo sapiens, Table 4
Method: as §1

Molt4/C8 cells = test: Cytostatic assay, Molt4/C8; type: cell-based; conditions: Table 2
Method: as §1

[3] = system: BAEC aortic endothelial cells; test: Cytostatic assay, BAEC; type: cell-based, bovine; conditions: Bos taurus, Table 3
Method: as §1

[4] = system: HeLa cervix carcinoma cells; test: Cytostatic assay, HeLa; type: cell-based, human; conditions: Homo sapiens; Table 3; read-out: Cytostatic activity (μM) Hela
In short: (§2)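 Cells (5-7.5×10^4/well) + test compound; growth 48–96 h (line-dependent), 37° C, humidified CO2 atmosphere; endpoint Coulter count.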

HepG2C3A hepatoma cells = test: Cytostatic assay, HepG2C3A; type: cell-based; conditions: Homo sapiens, HepG2/C3A; Table 4
Method: as §1

[5] = system: HT29 colorectal carcinoma cells; test: Cytostatic assay, HT29; type: cell-based; conditions: Homo sapiens, HT-29; Table 3
Method: as §1

[6] = system: Caki-2 kidney carcinoma cells; test: Cytostatic assay, Caki-2; type: cell-based; conditions: Homo sapiens, Table 3
Method: as §1

[7] = system: DNA synthesis in Raji cells; test: Antimetabolic activity assay, [CH3-3H]dThd incorporation (DNA synthesis), Raji; type: cell-based; conditions: Homo sapiens, incorporation into TCA-insoluble material
Method: [The procedure below names another cell line; the source lists this cell line under the same test.] (§3) Radiolabeled precursors of DNA synthesis ([^3H-methyl]dThd), RNA synthesis ([5-^3H]Urd), and protein synthesis ([4,5-^3H]leu) were added to 10^5 CEM cell cultures in the 200 μl-wells of a microtiter plate at 1 μCi for each precursor in the presence of varying concentrations of the test compounds (5-fold dilution series). The cells were allowed to proliferate for 20 hrs at 37° C. in a humidified, CO2-controlled atmosphere. At the end of the incubation period, the contents of the wells were brought onto 25-mm glass fiber filters and further processed for measurement of acid-insoluble radioactivity.

CEM cells = test: Cytostatic assay, CEM; type: cell-based; conditions: Homo sapiens, CCRF-CEM
In short: as §2

[8] = system: PC3 (rega) prostate cancer cells; test: Cytostatic assay, PC3 (rega); type: cell-based; conditions: Table 4
Method: as §1

[9] = system: 22Rv1 (UZ) prostate cancer cells; test: Cytostatic assay, 22Rv1 (UZ); type: cell-based; conditions: Homo sapiens, Table 4
Method: as §1

MT-4 cells = test: Cytostatic assay, MT-4; type: cell-based; conditions: Homo sapiens, MT4; Table 2
Method: as §1

Huh-7 hepatoma cells = test: Cytostatic assay, Huh-7; type: cell-based; conditions: Homo sapiens, Table 4
Method: as §1

HUT-78 cells = test: Cytostatic assay, HUT-78; type: cell-based; conditions: Homo sapiens, HuT78; Table 2
Method: as §1

[10] = system: Raji, human B-lymphoma cells; test: Cytostatic assay, Raji; type: cell-based; conditions: Table 2
Method: as §1

[11] = system: THP-1, human monocytic cells; test: Cytostatic assay, THP-1; type: cell-based; conditions: Table 2
Method: as §1

[12] = system: FM3A mammary carcinoma cells; test: Cytostatic assay, FM3A; type: cell-based, murine; conditions: Mus musculus, Table 3
Method: as §1

[13] = system: HL60, human leukemia cells; test: Cytostatic assay, HL-60; type: cell-based; conditions: Table 2
Method: as §1

BPH-1 (UZ) = test: Cytostatic assay, BPH-1 (UZ); type: cell-based; conditions: Homo sapiens, Table 4
Method: as §1

U87 glioma cells = test: Cytostatic assay, U87; type: cell-based; conditions: Homo sapiens, U-87 MG; Table 3
Method: as §1

Sup T1 cells = test: Cytostatic assay, Sup T1; type: cell-based; conditions: Homo sapiens, Table 2, read-out: Cytostatic activity (μM) Sup T 1
Method: as §1

[14] = system: OST TK- osteosarcoma cells; test: Cytostatic assay, OST TK-; type: cell-based; conditions: Homo sapiens; Table 3
Method: as §1

[15] = system: U937, human monocytic cells; test: Cytostatic assay, U937; type: cell-based; conditions: U-937, Table 2
Method: as §1

[16] = system: protein synthesis in CEM cells; test: Antimetabolic activity assay, [4,5-3H]leucine incorporation (protein synthesis), CEM; type: cell-based; conditions: Homo sapiens, CCRF-CEM, incorporation into TCA-insoluble material
Method: as §3

[17] = system: protein synthesis in Raji cells; test: Antimetabolic activity assay, [4,5-3H]leucine incorporation (protein synthesis), Raji; type: cell-based; conditions: Homo sapiens, incorporation into TCA-insoluble material
Method: [The procedure below names another cell line; the source lists this cell line under the same test.] as §3

[18] = system: 293T embryonic kidney cells; test: Cytostatic assay, 293T; type: cell-based; conditions: Homo sapiens, HEK-293T; Table 3
Method: as §1

[19] = system: RNA synthesis in CEM cells; test: Antimetabolic activity assay, [5-3H]uridine incorporation (RNA synthesis), CEM; type: cell-based; conditions: Homo sapiens, CCRF-CEM, incorporation into TCA-insoluble material
Method: as §3

[20] = system: Caki-1 kidney carcinoma cells; test: Cytostatic assay, Caki-1; type: cell-based; conditions: Homo sapiens, Table 3
Method: as §1

[21] = system: HEL embryonic lung fibroblast cells; test: Cytostatic assay, HEL; type: cell-based; conditions: Homo sapiens, Table 3
Method: as §1

MT-2 cells = test: Cytostatic assay, MT-2; type: cell-based; conditions: Homo sapiens, MT2; Table 2
Method: as §1

[22] = system: DNA synthesis in CEM cells; test: Antimetabolic activity assay, [CH3-3H]dThd incorporation (DNA synthesis), CEM; type: cell-based; conditions: Homo sapiens, CCRF-CEM, incorporation into TCA-insoluble material
Method: as §3

[23] = system: LNCaP (UZ) prostate cancer cells; test: Cytostatic assay, LNCaP (UZ); type: cell-based; conditions: Homo sapiens, Table 4
Method: as §1

C8166 cells = test: Cytostatic assay, C8166; type: cell-based; conditions: Homo sapiens, Table 2
Method: as §1

[24] = system: MCF-7 mammary carcinoma cells; test: Cytostatic assay, MCF-7; type: cell-based; conditions: Homo sapiens, MCF7; Table 3
Method: as §1

[25] = system: PC-3 (UZ) prostate cancer cells; test: Cytostatic assay, PC-3 (UZ); type: cell-based; conditions: Table 4
Method: as §1

[26] = system: RNA synthesis in Raji cells; test: Antimetabolic activity assay, [5-3H]uridine incorporation (RNA synthesis), Raji; type: cell-based; conditions: Homo sapiens, incorporation into TCA-insoluble material
Method: [The procedure below names another cell line; the source lists this cell line under the same test.] as §3

[27] = system: broad variety of tumor cell lines; test: Cytostatic assays, summary over the panel of cell lines (Tables 2-4); type: cell-based; conditions: range over the cell lines of Tables 2-4; read-out: IC50 range (antiproliferative activity)
Method: as §1

L1210 cells = test: Cytostatic assay, L1210; type: cell-based; conditions: Mus musculus, Table 2
Method: as §1

[28] = Table 2, read-out: Cytostatic activity (μM) CEM
[29] = Table 1a, read-out: IC50 μM (CEM)

IC50 [1] | IC50 (PLC/PRF/5 hepatoma cells) | IC50 [2] | IC50 (Molt4/C8 cells) | IC50 [3] | IC50 [4] | IC50 (HepG2C3A hepatoma cells) | IC50 [5] | IC50 [6] | IC50 (CEM cells; [28]) | IC50 [8] | IC50 [9] | IC50 (Huh-7 hepatoma cells) | IC50 (HUT-78 cells) | IC50 [10] | IC50 [11] | IC50 [12] | IC50 [13] | IC50 (BPH-1 (UZ)) | SMILES | IC50 (MT-4 cells) | further results
18 ± 2.1 µM | 25 µM | 31 ± 0.71 µM | 24 ± 17 µM | 31 ± 4.2 µM | 11 ± 3 µM | 34 ± 12 µM | 43 ± 4.2 µM | 42 ± 2.1 µM | 20 ± 6 µM | 12 ± 2.1 µM | 14 ± 8.3 µM | 34 ± 14 µM | 26 ± 3.5 µM | 41 ± 7.1 µM | 20 ± 1.4 µM | 33 ± 9 µM | 17 ± 0.7 µM | 28 ± 3.5 µM | CCOC(=O)c1c(N)sc(CCc2cc(OC)ccc2OC)c1C(=O)OCC [TR592, 2-Amino-5-[2-(2,5-dimethoxy-phenyl)-ethyl]-thiophene-3,4-dicarboxylic acid diethyl ester] | 36 ± 16 µM | IC50 [7]: 25 ± 16 µM; IC50 (U87 glioma cells): 39 ± 2.8 µM; IC50 (Sup T1 cells): 4.1 ± 0.4 µM; IC50 [14]: 17 ± 5.7 µM; IC50 [15]: 20 ± 15 µM; IC50 [16]: 17 µM; IC50 [17]: 23 ± 7 µM; IC50 [18]: 30 ± 7.1 µM; IC50 [19]: 31 ± 22 µM; IC50 [20]: 24 ± 0.7 µM; IC50 [21]: 35 ± 6.4 µM; IC50 (MT-2 cells): 8.1 ± 1.2 µM; IC50 [22]: 17 ± 8 µM; IC50 [23]: 4.1 ± 3.6 µM; IC50 (C8166 cells): 25 ± 3.5 µM; IC50 [24]: 27 ± 19 µM; IC50 [25]: 8.5 ± 0.85 µM; IC50 [26]: 31 ± 19 µM
> 100 µM | 49 ± 3.5 µM | > 100 µM | 275 ± 89 µM | > 100 µM | 168 ± 15 µM | ≥ 100 µM | > 100 µM | ≥ 200 µM | 233 ± 29 µM | 69 ± 21 µM | 34 ± 26 µM | > 100 µM | > 200 µM | > 100 µM | 124 ± 25 µM | 320 ± 14 µM | ≥ 135 µM | > 100 µM | COc1ccc(-c2cc(C#N)c(N)s2)cc1 [TR582, 2-Amino-5-(4-methoxy-phenyl)-thiophene-3-carbonitrile] | 76 ± 35 µM | IC50 [27]: 24 to 320 µM; IC50 (CEM cells; [29]): 233 µM; IC50 (U87 glioma cells): > 100 µM; IC50 (Sup T1 cells): > 200 µM; IC50 [14]: 134 ± 69 µM; IC50 [15]: > 200 µM; IC50 (L1210 cells): 230 ± 65 µM; IC50 [18]: > 100 µM; IC50 [20]: 19 ± 18 µM; IC50 [21]: 33 ± 0.71 µM; IC50 (MT-2 cells): ≥ 161 µM; IC50 [23]: 4.8 ± 3.4 µM; IC50 (C8166 cells): > 200 µM; IC50 [24]: 117 ± 58 µM; IC50 [25]: > 100 µM
18 ± 9.2 µM | 42 ± 2.1 µM | 53 ± 2.1 µM | 44 ± 9 µM | 47 ± 3.5 µM | 63 ± 19 µM | 28 ± 8.5 µM | 42 ± 3.5 µM | 9 ± 1.4 µM | 74 ± 3.5 µM | 5.5 ± 4 µM | 69 ± 44 µM | 42 ± 7.8 µM | 26 ± 17 µM | 61 ± 18 µM | 21 ± 0.7 µM | 97 ± 32 µM | 11 ± 1.4 µM | 58 ± 6.4 µM | COC(=O)c1cc(-c2ccc(OC)cc2)sc1N [TR572, 2-Amino-5-(4-methoxy-phenyl)-thiophene-3-carboxylic acid methyl ester] | 40 ± 12 µM | IC50 (CEM cells; [29]): 74 µM; IC50 (U87 glioma cells): 71 ± 3.5 µM; IC50 (Sup T1 cells): 55 ± 30 µM; IC50 [14]: 25 ± 2.1 µM; IC50 [15]: 63 ± 7.1 µM; IC50 (L1210 cells): 60 ± 12 µM; IC50 [18]: > 100 µM; IC50 [20]: 4.4 ± 1.9 µM; IC50 [21]: 34 ± 20 µM; IC50 (MT-2 cells): 12 ± 1.4 µM; IC50 [23]: 1.1 ± 0.84 µM; IC50 (C8166 cells): 179 ± 18 µM; IC50 [24]: 119 ± 52 µM; IC50 [25]: 4.3 ± 1.7 µM
